Results reported in US7674887B2, “Thrombopoietin mimetics” (GlaxoSmithKline LLC, priority 2000, dated 2010).

How the values were obtained:
[1] = system: human UT7TPO cell line; experiment: Proliferation assay using the human UT7TPO cell line; type: cell-based; details: UT7TPO cells
Description: Proliferation Assay Some of the more preferred compounds of this invention were active in an in vitro proliferation assay using the human UT7TPO cell line. UT7TPO cells are a human megakaryoblastic cell line that express Tpo-R, whose survival and growth is dependent on the presence of TPO (Komatsu et al. Blood 1996, 87,4552).

Row | Compound | melting point | EC50 ([1]; Homo sapiens, UT7/TPO) [nM] | activity relative to TPO in the proliferation assay [1] [% TPO]
1 | CC1=NN(c2ccc(C)c(C)c2)C(=O)C1=NNc1ccc(-c2cccc(C(=O)O)c2)cc1O [Example 2, 4′-{N′-[1-(3,4-dimethylphenyl)-3-methyl-5-oxo-1,5-dihydropyrazol-4-ylidene]hydrazino}-3′-hydroxybiphenyl-3-carboxylic acid] | 282 °C (dec.) |  | 
2 | CC1=NN(c2ccc(C(C)(C)C)cc2)C(=O)C1=NNc1cccc(-c2cccc(C(=O)O)c2)c1O (hydrate or solvate) [Example 4, 3′-{N′-[1-(4-tert-butylphenyl)-3-methyl-5-oxo-1,5-dihydropyrazol-4-ylidene]hydrazino}-2′-hydroxybiphenyl-3-carboxylic acid] | 145 °C (dec.) |  | 
3 | CC1=NN(c2ccc(C)c(C)c2)C(=O)C1=NNc1cccc(-c2cccc(C(=O)O)c2)c1O [Example 3, 3′-{N′-[1-(3,4-dimethylphenyl)-3-methyl-5-oxo-1,5-dihydropyrazol-4-ylidene]hydrazino}-2′-hydroxybiphenyl-3-carboxylic acid] |  | 30 | 100
4 | CC1=NN(c2ccc(C)c(C)c2)C(=O)C1=NNc1ccc(-c2ccc(C(=O)O)cc2)cc1O (hydrate or solvate) [Example 1, 4′-{N′-[1-(3,4-dimethylphenyl)-3-methyl-5-oxo-1,5-dihydropyrazol-4-ylidene]hydrazino}-3′-hydroxybiphenyl-4-carboxylic acid] | 280 °C (dec.) |  | 
5 | Cc1ccc(N2N=C(Cl)C(=NNc3cccc(-c4cccc(C(=O)O)c4)c3O)C2=O)cc1C [Example 24, 3′-{N′-[3-Chloro-1-(3,4-dimethylphenyl)-5-oxo-1,5-dihydropyrazol-4-ylidene]hydrazino}-2′-hydroxybiphenyl-3-carboxylic acid] | 210 °C (dec.) |  | 
